Key:
[1] = test system: A549 cells; test: Transcriptome studies (mRNA microarrays); type: cell-based, human
Protocol: NSCLC A549 cells were treated with 100 μM CDDP, 75 μM C2-CER or 100 μM CdCl2 for 12 h, or with 50 μM CDDP, C2-CER or CdCl2 for 24 h. Thereafter, cells were collected and lysed for RNA extraction of following established procedures {de La Motte Rouge, 2007}. mRNA expression changes were quantified on G4112A 44 k Whole Human Genome Oligo Microarrays (Agilent Technologies, Santa Clara, USA), as previously reported {Castedo, 2006}. mRNA microarrays underwent standardized post-hybridization processing, image acquisition and analysis (see below) {Castedo, 2006}.
Data from microarray experiments were analyzed with the Rosetta Resolver® System (Rosetta Biosoftware, Seattle, USA). The threshold for statistical significance of probe signals (Intensity) was set at p=10^−5. […] For each mRNA, fold change (FC) was then defined as Intensitysample/Intensitycontrol when Intensitysample>Intensitycontrol, or as—(Intensitycontrol/Intensitysample) when Intensitysample<Intensitycontrol. Ratios were calculated as Intensitysample/Intensitycontrol.

[2] = test system: murine Lewis lung carcinoma (LLC) cells in immunocompetent C57BL/6 mice; test: Tumor graft model: LLC cells in C57BL/6 mice; type: in vivo, mouse; conditions: intraperitoneal CDDP with systemic injections of PN
Protocol: C57BL/6 (H-2b) and Swiss Nude mice were obtained from Janvier (Le Genest St. Isle, France) and Charles River, respectively. Animals were maintained in pathogen-free conditions, and all experiments were carried out (upon approval by the local ethical committee) according to the Federation of European Laboratory Animal Science Association (FELASA) guidelines. Mice were used between 6 and 12 weeks of age. During the experiments, animals were subjected to artificial light cycle (12 h lights on-12 h lights off) and allowed food and drink ad libitum.
5×10^5 LLC and A549 cells were subcutaneously xenografted (in 100 μL sterile PBS) in 25-30 immunocompetent (C57BL/6) and immunodeficient (Swiss Nude) mice, respectively. When the surface of tumors reached 25-40 mm^2, n=4-6 mice were assigned to either of 4 different treatment groups: group 1=100 μL intraperitoneal PBS; group 2=5 mg/kg intraperitoneal CDDP in 100 μL PBS; group 3=240 mg/Kg intraperitoneal Orlistat® in 40 μL PBS; group 4=5 mg/kg intraperitoneal CDDP in 100 μL PBS+intraperitoneal Orlistat® in 40 μL PBS. Treatments were administered three times a week (day 1, 3 and 5; day 8=day 1). Tumor size was monitored on the day of treatment by means of a standard calliper and tumor volume was extrapolated as previously described {Streit, 1999}. […] Statistical significance was evaluated by two-way ANOVA.

[3] = test system: A549 cells; test: Intracellular levels of CDDP in cell lysates; type: cell-based, human; conditions: 24 h, 25 μM CDDP alone or with PN and/or GSH, normalized to protein content
Protocol: (E,F) Intracellular levels of CDDP (normalized to protein content) in lysates from untransfected A549 cells (D) or A549 cells transfected with a PDXK-targeting siRNA (E), treated for 24 h with 25 μM CDDP alone or in combination with PN and/or GSH. Mean±SEM (n=6). *=p<0.05 (Studen's t test), as compared to untransfected (D) or siUNR transfected (E) cells treated with CDDP only. n.s.=non significant (Student's t test), as compared to cells treated with the same concentration of GSH (D) or to siPDXK-transfected cells treated with CDDP only (E).

[4] = 12 h, 100 μM CDDP, 75 μM C2-CER or 100 μM CdCl2, vs untreated cells
[5] = 24 h, 50 μM CDDP, C2-CER or CdCl2, vs untreated cells

N.N.[Cl][Pt][Cl] [CDDP, cis-diammineplatinum(II) dichloride]
Fold change, ADAR (NM_001111) transcript [1, 4]: n.s.
Fold change, ALDH7AT (NM_001182) transcript [1, 4]: n.s.
Fold change, CD151 (NM_004357) transcript [1, 4]: n.s.
Fold change, CLIC1 (NM_001288) transcript [1, 4]: n.s.
Fold change, COMMO9 (NM_014186) transcript [1, 4]: n.s.
Fold change, COX5B (NM_001802) transcript [1, 4]: n.s.
Fold change, COX7C (NM_001867) transcript [1, 4]: n.s.
Fold change, DHRSX (NM_145177) transcript [1, 4]: −1.94
Fold change, EBP (NM_006579) transcript [1, 4]: n.s.
Fold change, EEF2 (NM_001901) transcript [1, 4]: 1.36
Fold change, FDXK (NM_003681) transcript [1, 4]: −1.77
Fold change, FN3KRP (NM_024619) transcript [1, 4]: 1.33
Fold change, HDLBP (NM_005336) transcript [1, 4]: n.s.
Fold change, HGD (NM_000187) transcript [1, 4]: −1.68
Fold change, IL6R (NM_000565) transcript [1, 4]: n.s.
Fold change, KHSRP (NM_003685) transcript [1, 4]: n.s.
Fold change, LOC389727 (NM_372092) transcript [1, 4]: n.s.
Fold change, MAT2A (NM_005911) transcript [1, 4]: −1.97
Fold change, MOL1 (NM_021960) transcript [1, 4]: 2.48
Fold change, MPP6 (NM_016447) transcript [1, 4]: n.s.
Fold change, OSTCL (NM_145303) transcript [1, 4]: n.s.
Fold change, P5MC5 (NM_002805) transcript [1, 4]: n.s.
Fold change, PLK1S1 (NM_018474) transcript [1, 4]: n.s.
Fold change, PPM1J (NM_005167) transcript [1, 4]: 1.63
Fold change, RNF26 (NM_032015) transcript [1, 4]: n.s.
Fold change, RRAD (NM_004185) transcript [1, 4]: 6.59
Fold change, SEMA3G (NM_000379) transcript [1, 4]: −1.58
Fold change, SLC22A16AS (NM_007105) transcript [1, 4]: −1.36
Fold change, SOCS6 (NM_004232) transcript [1, 4]: −1.28
Fold change, TMED1 (NM_006858) transcript [1, 4]: 1.35
Fold change, TRIP4 (NM_016213) transcript [1, 4]: −1.64
Fold change, UBE2L3 (NM_003347) transcript [1, 4]: −1.76
Fold change, UBE21 (NM_014176) transcript [1, 4]: n.s.
Fold change, W282 (NM_018029) transcript [1, 4]: n.s.
Fold change, ADAR (NM_001111) transcript [1, 5]: n.s.
Fold change, ALDH7AT (NM_001182) transcript [1, 5]: 1.62
Fold change, CD151 (NM_004357) transcript [1, 5]: −2.13
Fold change, CLIC1 (NM_001288) transcript [1, 5]: n.s.
Fold change, COMMO9 (NM_014186) transcript [1, 5]: n.s.
Fold change, COX5B (NM_001802) transcript [1, 5]: n.s.
Fold change, COX7C (NM_001867) transcript [1, 5]: n.s.
Fold change, DHRSX (NM_145177) transcript [1, 5]: −5.40
Fold change, EBP (NM_006579) transcript [1, 5]: n.s.
Fold change, EEF2 (NM_001901) transcript [1, 5]: −1.31
Fold change, FDXK (NM_003681) transcript [1, 5]: −1.44
Fold change, FN3KRP (NM_024619) transcript [1, 5]: 1.25
Fold change, HDLBP (NM_005336) transcript [1, 5]: n.s.
Fold change, HGD (NM_000187) transcript [1, 5]: −1.50
Fold change, IL6R (NM_000565) transcript [1, 5]: n.s.
Fold change, KHSRP (NM_003685) transcript [1, 5]: −2.00
Fold change, LOC389727 (NM_372092) transcript [1, 5]: n.s.
Fold change, MAT2A (NM_005911) transcript [1, 5]: n.s.
Fold change, MOL1 (NM_021960) transcript [1, 5]: n.s.
Fold change, MPP6 (NM_016447) transcript [1, 5]: n.s.
Fold change, OSTCL (NM_145303) transcript [1, 5]: n.s.
Fold change, P5MC5 (NM_002805) transcript [1, 5]: n.s.
Fold change, PLK1S1 (NM_018474) transcript [1, 5]: n.s.
Fold change, PPM1J (NM_005167) transcript [1, 5]: n.s.
Fold change, RNF26 (NM_032015) transcript [1, 5]: n.s.
Fold change, RRAD (NM_004185) transcript [1, 5]: 3.75
Fold change, SEMA3G (NM_000379) transcript [1, 5]: n.s.
Fold change, SLC22A16AS (NM_007105) transcript [1, 5]: −1.34
Fold change, SOCS6 (NM_004232) transcript [1, 5]: n.s.
Fold change, TMED1 (NM_006858) transcript [1, 5]: n.s.
Fold change, TRIP4 (NM_016213) transcript [1, 5]: n.s.
Fold change, UBE2L3 (NM_003347) transcript [1, 5]: n.s.
Fold change, UBE21 (NM_014176) transcript [1, 5]: n.s.
Fold change, W282 (NM_018029) transcript [1, 5]: 1.30

Cc1ncc(CO)c(CO)c1O [PN, pyridoxine]
antitumor effects of CDDP-based chemotherapy (tumor growth) [2]: augmented the antitumor effects of CDDP-based chemotherapy in vivo
intracellular accumulation of CDDP [3]: significantly augmented by PN in a PDXK-dependent fashion

— patent publication US20130281313A1, “PROGNOSTIC AND/OR PREDICTIVE BIOMARKERS AND BIOLOGICAL APPLICATIONS THEREOF” (INSTITUT GUSTAVE ROUSSY, priority 2010, published 2013)
